# Patent US4559325A, “Purified antineoplaston fractions and methods of treating neoplastic disease” (priority 1984, dated 1985)
# Counter-ions that a name gives are not always drawn.
# Legend:
# [1] = Acute toxicity studies in mice; settings: mouse, in vivo, ip
# Protocol: After a week, a select number of the mice were sacrificed.
# Acute toxicity studies involving antineoplaston fractions A2-A5, antineoplaston A10 and degradation products were carried out in the same manner described above.
# [2] = system: Rd/3 sarcoma; settings: rats, cited from earlier work
SMILES,LD50 [1] [mg/kg],enhancement of tumor growth ([2]; Rd/3 sarcoma),"effect on tumor growth, Rd/3 sarcoma ([2]; inhibition)"
"O=C1CCC(NC(=O)Cc2ccccc2)C(=O)N1 (stereo not drawn) [Antineoplaston A10, 3-[N-phenylacetylaminopiperidine]-2,6-dion]",10300,,
O=C(O)Cc1ccccc1 [sodium salt of phenylacetic acid],,some enhancement of tumor growth,failed to inhibit tumor growth
